Here are results for eight compounds from ChEMBL document CHEMBL1131805, “Synthesis and biological evaluation of analogs of the marine toxin polycavernoside A” (Bioorg Med Chem Lett, 1999).

What all share (type): ADME
A short description of data set [1]: Minimal lethal dose in mice causing gradual progressive onset of severe scratching of face and body, spasms, paralysis (30 min after injection), severe eye damage, and death occurring within 24 h; range: 0.38-0.77. The following applies: mouse, in vivo.
Data set [2] is described as follows: Minimal lethal dose in mice causing gradual progressive onset of severe scratching of face and body, spasms, paralysis, severe eye damage, and death; range: 1.5-3.1. The following applies: mouse, in vivo.
A short description of data set [3]: Minimal lethal dose in mice showing no adverse symptoms seen. The following applies: mouse, in vivo.
Data set [4] is described as follows: Minimal lethal dose in mice causing no scratching or eye damage, but frenetic jumping, severe spasms, and ultimately paralysis; if death did not occur within 30 min, total recovery was noted; range: 1.5-3.1. The following applies: mouse, in vivo, 0.5 h.
A short description of data set [5]: Minimal lethal dose in mice causing gradual progressive onset of severe scratching of face and body, spasms, paralysis, severe eye damage, and death; range: 0.2-0.4. The following applies: mouse, in vivo.

The structures appear in SMILES notation. Bounds are passed on as bounds.

`CO[C@@H]1[C@H](O[C@@H]2[C@@H](OC)[C@H](O[C@H]3C[C@H]4CC(=O)[C@@]5(O)O[C@H](C[C@H]5C)C(C)(C)[C@@H](/C=C/C#C/C=C/C(C)C)OC(=O)C[C@H](O4)[C@@H]3C)OC[C@H]2OC)O[C@@H](C)[C@@H](O)[C@@H]1OC` displayed an MLD in data set [1] of 0.38 mg/kg.
Regarding `CO[C@@H]1[C@H](O[C@@H]2[C@@H](OC)[C@H](O[C@H]3C[C@H]4CC(=O)[C@@]5(O)O[C@H](C[C@H]5C)C(C)(C)[C@@H](/C=C/C=C/C(C)C)OC(=O)C[C@H](O4)[C@@H]3C)OC[C@H]2OC)O[C@@H](C)[C@@H](O)[C@@H]1OC`, the MLD in data set [2] turned out to be 3.1 mg/kg.
Turning to `COC1C(O)C(C)OC(O[C@H]2C(OC)COC(O[C@H]3C[C@H]4CC(=O)[C@@]5(O)O[C@H](C[C@H]5C)C(C)(C)[C@@H](/C=C/c5ccccc5)OC(=O)C[C@H](O4)[C@@H]3C)[C@@H]2OC)[C@H]1OC` (stereo partly drawn), the MLD in data set [3] is above 13 mg/kg.
In the case of `CC(C)/C=C/C=C/C=C/[C@H]1OC(=O)C[C@@H]2O[C@H](CC(=O)[C@@]3(O)O[C@H](C[C@H]3C)C1(C)C)C[C@H](O)[C@H]2C`, the MLD in data set [4] was found to be 1.5 mg/kg.
As for `CO[C@@H]1[C@H](O[C@@H]2[C@@H](OC)[C@H](O[C@H]3C[C@H]4CC(=O)[C@@]5(O)O[C@H](C[C@H]5C)C(C)(C)[C@@H](/C=C/C=C/C5CCCCC5)OC(=O)C[C@H](O4)[C@@H]3C)OC[C@H]2OC)O[C@@H](C)[C@@H](O)[C@@H]1OC`, in data set [3], the MLD is above 13 mg/kg.
Still for that read-out and setting: then `C[C@H]1[C@@H]2CC(=O)O[C@H](/C=C/I)C(C)(C)[C@H]3C[C@@H](C)[C@](O)(O3)C(=O)C[C@H](C[C@@H]1O)O2`, with above 13 mg/kg.
As for `CO[C@@H]1[C@H](O[C@@H]2[C@@H](OC)[C@H](O[C@H]3C[C@H]4CC(=O)[C@@]5(O)O[C@H](C[C@H]5C)C(C)(C)[C@@H](/C=C/C=C/C=C/C(C)C)OC(=O)C[C@H](O4)[C@@H]3C)OC[C@H]2OC)O[C@@H](C)[C@@H](O)[C@@H]1OC` [polycavemoside A], the MLD in data set [5] amounted to 0.2 mg/kg.
Same read-out and setting: in the case of `CO[C@@H]1[C@H](OC)[C@H](O[C@@H]2[C@@H](OC)[C@H](O[C@H]3C[C@H]4CC(=O)[C@@]5(O)O[C@H](C[C@H]5C)C(C)(C)[C@@H](/C=C/C=C/C(C)C)OC(=O)C[C@H](O4)[C@@H]3C)OC[C@H]2OC(C)=O)O[C@@H](C)[C@H]1OC` [polycavernoside B] it was 0.2 mg/kg.
